From the OPERA property sets (Mansouri et al. 2018)

Conditions: for log10 biotransformation half-life (days) / log10 BCF: fish

Structure (SMILES) | melting point | boiling point | other results
CC(=O)Nc1ccc(O)cc1 | 170 °C | – | ready biodegradability: readily biodegradable
O=C(OCCO)c1ccc(C(=O)OCCO)cc1 | – | – | ready biodegradability: readily biodegradable
CCCC[Si](C)(C)Cl | – | 139 °C | –
O=c1ccc(=O)[nH][nH]1 | 306 °C | – | log10 Koc (L/kg): 0.45; ready biodegradability: readily biodegradable
Brc1cncc(Br)c1 | 112 °C | 222 °C | –
Oc1ccccc1-c1nnco1 | 112 °C | – | –
CC(Oc1ccc(Oc2ncc(C(F)(F)F)cc2Cl)cc1)C(=O)O (stereo not drawn) | 108 °C | – | –
CCOC(=O)C(Cl)C(=O)OCC | – | 222 °C | –
CC(=O)OCC(=O)c1ccccc1 | 49 °C | 270 °C | –
Brc1cccc2c1Oc1ccccc1O2 | 104 °C | – | log10 vapour pressure (mmHg): -4.58
CC[Si](F)(F)CC | -78.7 °C | 61 °C | –
Cc1cc([N+](=O)[O-])ccc1N | 134 °C | – | –
CCOc1ccc2nc(S)sc2c1 | 199 °C | – | –
CCCCC(CC)COC(=O)c1nc(Cl)c(Cl)c(N)c1Cl (stereo not drawn) | – | – | log10 biotransformation half-life (days): 0.45
CC(=O)C1CCCC1 | – | 158 °C | –
C=CC[C@@H](C)CC | -142 °C | 86.7 °C | log10 vapour pressure (mmHg): 1.87
C=CCOC1=NS(=O)(=O)c2ccccc21 | 138 °C | – | ready biodegradability: not readily biodegradable
OC(c1ccccc1)(c1ccccc1)c1ccccc1 | 164 °C | 380 °C | –
C=CC(CC)CCC (stereo not drawn) | – | 110 °C | –
CC(C)SSC(C)C | -69 °C | 177 °C | –
CN(Cc1cc(Br)cc(Br)c1N)C1CCCCC1 | 238 °C | – | –
OC1CCC1 | – | 124 °C | –

Structure (SMILES) | melting point | boiling point | other results
CC(C)(C)O | 25.4 °C | 82.4 °C | log10 Henry constant (atm·m³/mol): -5.04; log10 Koa: 3.5; log10 vapour pressure (mmHg): 1.61; ready biodegradability: not readily biodegradable; log10 BCF: 0.7; log10 biotransformation half-life (days): -1.13
CCCCOC(=O)C(C)C | – | 155 °C | –
CCCCCCCCc1ccccc1 | -36 °C | 264 °C | log10 vapour pressure (mmHg): -1.95; log10 biotransformation half-life (days): 0.22
NC(=O)C(Cl)(Cl)Cl | 142 °C | 240 °C | log10 Koc (L/kg): 0.99
COc1ccc(C(C)=O)c(O)c1 | 52.5 °C | – | –
CCCCCCCCCCCCCCCCI | 22 °C | – | log10 vapour pressure (mmHg): -4.78
C=CCn1c(=O)n(CC=C)c(=O)n(CC=C)c1=O | 20.5 °C | – | ready biodegradability: not readily biodegradable
N#Cc1ccc(OC(F)(F)F)cc1 | – | 192 °C | –
CCN(CC)CCCC(C)N (stereo not drawn) | – | 201 °C | –
C=CC(O)CCCCCC (stereo not drawn) | – | 194 °C | –
NCCCN | – | 140 °C | –
CCN(C=O)CC | – | 178 °C | log10 vapour pressure (mmHg): 0.0821
C#CCCCCCCCCCCCCCCCC | 22.5 °C | 313 °C | –
CCCC(C)(O)C(C)(C)C (stereo not drawn) | – | 170 °C | –
CCCOc1ccccc1O | – | 227 °C | –
Oc1ccc(-c2ccc(O)cc2)cc1 | 283 °C | – | ready biodegradability: not readily biodegradable
CCOCCOC(=O)c1ccccc1C(=O)OCCOCC | 34 °C | 345 °C | –
C=CCc1ccc(OC(C)=O)c(OC)c1 | 30.5 °C | 281 °C | log10 vapour pressure (mmHg): -2.5
c1ccc2c(c1)CCCC2 | -35.7 °C | 208 °C | log10 biodegradation half-life (days): 0.903; log10 vapour pressure (mmHg): -0.434; ready biodegradability: not readily biodegradable; log10 BCF: 2.53; log10 biotransformation half-life (days): 0.75
O=C(O)CCCC(=O)O | – | 303 °C | log10 vapour pressure (mmHg): -5.54
CCCCC(C(=O)OCC)C(=O)OCC | – | 238 °C | –
CN1CCN(C2=Nc3ccccc3Sc3ccc(Cl)cc32)CC1 | 119 °C | – | –

Structure (SMILES) | melting point | boiling point | other results
C[Si]1(C)N[Si](C)(C)N[Si](C)(C)N[Si](C)(C)N1 | 97.5 °C | 225 °C | –
CN(C)CN(C)C | – | 83 °C | –
Clc1cc2c(Cl)cccc2c(Cl)c1Cl | 141 °C | – | log10 Koa: 8.29; log10 vapour pressure (mmHg): -4.96
CCOP(=O)(N=C1SCCS1)OCC | 41 °C | – | –
Cc1ccc(Cl)c(Cl)c1 | -15.2 °C | 209 °C | log10 vapour pressure (mmHg): -0.502
C/C(=C/c1ccccc1)CC(N)=O | 133 °C | – | –
Cn1ccnc1 | -6 °C | 196 °C | –
CCN1C(=O)c2ccccc2C1=O | 79 °C | 286 °C | –
Clc1c(Cl)c(Cl)c(-c2c(Cl)c(Cl)c(Cl)c(Cl)c2Cl)c(Cl)c1Cl | – | – | ready biodegradability: not readily biodegradable; log10 BCF: 4.24; log10 biotransformation half-life (days): 2.86
FC(F)(F)C1(F)C(F)(F)C(F)(F)C(F)(F)C(F)(C(F)(F)F)C1(F)F (stereo not drawn) | -70 °C | 102 °C | –
N#C[S-].[Na+] | 287 °C | – | –
Clc1cc(Cl)c(-c2ccccc2)c(Cl)c1Cl | – | – | log10 Henry constant (atm·m³/mol): -3.68
C/C=C/CCCCCCCC | -57.4 °C | 194 °C | –
CCC(C)C(C)(COC(N)=O)COC(N)=O (stereo not drawn) | 77 °C | – | –
COc1ccc(C(=O)CCC(=O)O)cc1 | 149 °C | – | –
c1ccc(OB(Oc2ccccc2)Oc2ccccc2)cc1 | 99.5 °C | – | –
COC(=O)c1c(C)cc(OC(=O)c2c(C)cc(O)c(C=O)c2O)c(C)c1O | 195 °C | – | –
Cc1cc(C)oc(=O)c1 | 51.5 °C | 245 °C | –
OCCCCCCCCl | 11 °C | – | –
COc1cc(S(C)=O)ccc1-c1nc2ncccc2[nH]1 (stereo not drawn) | 204 °C | – | –
Cc1cc(C)c(S(=O)(=O)Cl)c(C)c1 | 56 °C | – | –
CCCc1ccncc1 | – | 185 °C | –

Structure (SMILES) | melting point | boiling point | other results
Cc1cc2c(cc1S(N)(=O)=O)S(=O)(=O)CCC2 | 236 °C | – | –
CCOC(=O)C#N | – | 116 °C | –
CCCCCCCC(=O)NO | 78.8 °C | – | –
C=CCC(C)C | -154 °C | 53.9 °C | log10 vapour pressure (mmHg): 2.43; ready biodegradability: not readily biodegradable
CCOc1cccc(C)c1 | – | 192 °C | –
CCCOC(=O)CC | -75.9 °C | 122 °C | log10 vapour pressure (mmHg): 1.14
CN1CCc2cc3c(cc2[C@H]1[C@@H]1OC(=O)c2c1ccc1c2OCO1)OCO3 | 194 °C | – | –
CC1(C)C(=O)N(Cl)C(=O)N1Cl | 132 °C | – | –
CNC(=O)C(C)(C(C)C)C(C)C | 60 °C | – | –
O=C(C=NO)c1ccccc1 | 129 °C | – | –
CC(Cl)(CCl)CCl | – | 162 °C | –
CCCCC[C@H](O)/C=C/[C@@H]1[C@@H](C/C=C\CCCC(=O)O)[C@@H](O)C[C@H]1O | 30 °C | – | –
OCC(S)CS (stereo not drawn) | – | – | log10 vapour pressure (mmHg): -2.3
CCCCCC=CC=O | – | – | log10 Henry constant (atm·m³/mol): -4.13
C[C@]12C=CC(=O)C=C1CC[C@@H]1[C@@H]2[C@@H](O)C[C@@]2(C)[C@H]1CC[C@]2(O)C(=O)COC(=O)CCCc1ccc(N(CCCl)CCCl)cc1 | 164 °C | – | –
CCCCCCCCC#CCCCCCCCC(=O)O | 48 °C | – | –
Clc1nc(Cl)c(Cl)c(Cl)c1Cl | 126 °C | – | log10 vapour pressure (mmHg): -1.85
CC(=O)[C@H]1CC[C@H]2[C@@H]3CC[C@H]4C[C@H](O)CC[C@]4(C)[C@H]3CC[C@]12C | 174 °C | – | –
CC1=CC(=O)CC1 | – | 158 °C | –
C[C@@H]1CC[C@@]2(OC1)O[C@H]1C[C@H]3[C@@H]4CC=C5C[C@@H](O)CC[C@]5(C)[C@H]4CC[C@]3(C)[C@H]1[C@@H]2C | 206 °C | – | –
CC(C)C1(C)N=C(c2nc3ccccc3cc2C(=O)O)NC1=O (stereo not drawn) | 221 °C | – | log10 Koc (L/kg): 1.3; ready biodegradability: not readily biodegradable
Cc1c(C)c(Br)c(Br)c(Br)c1Br | 262 °C | 374 °C | –
